# Where two headings read alike, the source gives them in different places.
# Tests used:
# CMT1A rats = experiment: Sciatic nerve morphometry (toluidine blue, electron microscopy) in CMT1A rats; assay type: in vivo, rat
# Experimental: Sciatic nerves of 20 and 28 weeks old diabetic mice or 16 and 24 weeks old CMT1A rats treated with TRO19622 drug or PBS were fixed for 20 min in situ with 4% PFA and 2.5% glutaraldehyde, in 0.1 M phosphate buffer (pH7.3). Then nerves were removed and postfixed overnight in the same buffer.
# After washing 30 min in 0.2M PBS phosphate buffer, the nerves were incubated with 2% osmic acid in 0.1M phosphate buffer for 90 minutes at room temperature. Then, samples were washed in 0.2M PBS phosphate buffer, dehydrated using ethanol gradient solutions and embedded in epoxy resin. For electron microscopy of sciatic nerves, ultrathin (70 nm) cross-sections were cut and stained with 1% uranylacetate solution and lead-citrate and analyzed using a HITACHI H7100 electron microscope at the ‘Centre des Resources en Imagerie Cellulaire’ (CRIC) (for further details see Cotter et al., 2010^9). Semi-thin cross-sections (0.7 μm) were cut using a microtome (Leica, RM 2155) with a diamond knife (Histo HI 4317, Diatome). Sections were stained with blue of toluidine and observed using light microscope. G-ratio was determined using GRatioCalculator plugin of Image J. At less 200 fibers per animal were analysed.
# (§1) While demyelinating diabetes peripheral neuropathy is a commonly acquired disease, demyelination is also the characteristic feature of a large number of inherited diseases called Charcot-Marie-Tooth diseases (CMT). We therefore sought to test whether the inhibition of VDAC1 function could prevent demyelination in these diseases. We choose CMT1A rat strain^42 as this is arguably the most representative animal model of Charcot-Marie-Tooth disease, mimicking CMT1A the most prevalent CMT in humans^10. Twelve weeks old CMT1A rats were daily treated with TRO19622 for 15 or 30 days and one day or two months after treatment, we analyzed MAPK demyelination pathways by western blot. […] However, these effects disappeared two months after treatment. Then we analyzed phospho-c-jun activation in mSC using immunohistochemistry. […] Next, we measured Schwann cell demyelination and g-ratio by toluidine blue staining on semi-thin sciatic nerve sections and on thin sections using electron microscopy.
# [1] = test system: phospho-ERK1/2, phospho-p38, phospho-JNK and phospho-c-jun; experiment: Western blot of MAPK demyelination pathways in CMT1A rats; assay type: in vivo, rat; conditions: for activation of phospho-ERK1/2, phospho-p38, phospho-JNK and phospho-c-jun: after 15 and 30 days of treatment
# Source text: as §1
# phospho-c-jun = experiment: Immunohistochemistry of nuclear phospho-c-jun in mSC after nerve crush or MJ; assay type: in vivo, mouse; conditions: immunohistochemistry; TRO19622 30 minutes prior crush
# Experimental: The dissected nerve was washed in L15 medium, fixed in Zamboni's fixative (Stefanini et al., 1967^4) for 10 min at room temperature, washed in PBS, and incubated in successive glycerol baths (15, 45, 60, 66% in PBS) for 18 to 24 h each before freezing at −20° C. The nerves were cut in small pieces in 66% glycerol and the perineurium sheet removed. Small bundles of fibers were teased in double-distilled water on Superfrost slides, dried overnight at room temperature, and the slides stored at −20° C. For immunostaining, the teased fibers were incubated for 1 h at room temperature in blocking solution (10% goat serum, 0.2% TritonX100, and 0.01% sodium azide in PBS). Then, the samples were then incubated with anti-ECCD2 primary mouse antibody (1/100, BD biosciences, Ref. 610181), anti-phosphoS63-c-jun primary mouse antibody (1/200, BD Biosciences, Ref. 558036), anti-c-jun primary mouse antibody (1/200, BD Biosciences, Ref. 610326), anti-VDAC primary rabbit antibody (1/100, Cell Signaling, Ref. 4866) or/and MitoTracker Red (1/1000, Molecular Probes, Ref. M7515) in blocking solution overnight at 4° C. The next day, the samples were washed in PBS and incubated for 1 h at room temperature with secondary donkey antibodies coupled to Alexa488, Alexa 594 or Alexa647 (1/1600, Molecular probes) and TO-PRO-3 iodide (50 μM, Invitroge, Ref. T3605). Finally the samples were washed in PBS and mounted in Immu-mount (Thermo Scientific). Images were acquired at room temperature using a 20× or 40× objective, a Zeiss confocal microscope LSM710, and its associated software.
# TRO19622 drug (Tocris bioscience, Ref. 2906) was diluted in ethanol to 20 mM and then, the solution was diluted in sterile PBS to 20 μM. TRO19622 treatments were realized by 3 mg/kg intraperitoneal (IP) injections of 20 mM solution or by intra sciatic nerve injections of 2 μl of drug solution 2 μM using a Hamilton syringe or a glass needle in sterile conditions 30 minutes before multiphoton image acquisitions or immunohistochemistry and demyelination studies respectively. Methyl jasmonate drug (Sigma-Aldrich, Ref. 392707) was diluted in 1 ml of sterile PBS to 1M or 3M. Methyl jasmonate treatments were realized by intra sciatic nerve injections of 1 μl of drug solution using a glass needle and micromanipulator in sterile conditions following the same virus injections procedure (see in vivo virus injection in the sciatic nerve method) two hours before multiphoton image acquisition. […] All drug concentrations were previously evaluated by Bordet et al, 2007^5; Goldin et al, 2008^6; Sharov et al, 2007^7.
# To go further we also selectively silenced VDAC1 in mSC and measured the expression level of nuclear phospho-c-jun by immunohistochemistry after nerve crush. […]
compound,measurement,setting,value
"CC(C)CCC[C@@H](C)[C@H]1CC[C@H]2[C@@H]3CCC4=C/C(=N\O)CC[C@]4(C)[C@H]3CC[C@]12C [TRO19622, (NZ)—N-[(8S,9S,10R,13R,14S,17R)-10,13-dimethyl-17-[(2R)-6-methylheptan-2-yl]-1,2,6,7,8,9,11,12,14,15,16,17-dodecahydrocyclopenta[a]phenanthren-3-ylidene]hydroxylamine]",g-ratio of myelinated fibers,CMT1A rats,significant increase
same,number and diameter of axons in the nerve,CMT1A rats,increased
same,number of demyelinated fibers,CMT1A rats,reduction
same,g-ratio of myelinated fibers,CMT1A rats; listed as TRO16922,restored a correct g-ratio
same,number and diameter of axons in the nerve,CMT1A rats; listed as TRO16922,rescued axonal loss
same,"activation of phospho-ERK1/2, phospho-p38, phospho-JNK and phospho-c-jun",[1],significant down-regulation
same,"activation of phospho-ERK1/2, phospho-p38, phospho-JNK and phospho-c-jun",[1]; listed as TRO16922,prevented
same,down-regulation of MAPK demyelination pathways after treatment stop,[1]; two months after treatment,disappeared
same,nuclear phospho-c-jun in mSC after nerve crush,phospho-c-jun,strongly reduced
